Reference: patent US10730863B2, “Bridged bicyclic compounds as farnesoid X receptor modulators” (BRISTOL-MYERS SQUIBB COMPANY, priority 2017, dated 2020)

Target: FXR (Homo sapiens (Human), UniProt Q96RI1)
Assay: FXR EC50 (FXR agonist activity reported with each example)
Assay type: cell-based

FXR, sequence (Q96RI1 262-486): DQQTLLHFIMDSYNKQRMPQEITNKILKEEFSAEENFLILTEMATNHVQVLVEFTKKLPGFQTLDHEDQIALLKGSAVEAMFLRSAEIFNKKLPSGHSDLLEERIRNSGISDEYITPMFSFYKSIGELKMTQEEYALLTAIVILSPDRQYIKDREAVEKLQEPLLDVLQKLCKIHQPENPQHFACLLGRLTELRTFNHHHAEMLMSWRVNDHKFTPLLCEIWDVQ

SMILES | EC50
CC(C)(C#N)c1ccc(C23CCC(/C=C/c4c(-c5c(Cl)cncc5Cl)noc4C4CC4)(CC2)CO3)cc1 [Example 475, (E)-2-(4-(4-(2-(5-cyclopropyl-3-(3,5-dichloropyridin-4-yl)isoxazol-4-yl)vinyl)-2-oxabicyclo[2.2.2]octan-1-yl)phenyl)-2-methylpropanenitrile] | 1.5 µM
CC(C)(C#N)c1ccc(C23CCC(/C=C/c4c(-c5ccccc5C(F)(F)F)noc4C4CC4)(CC2)CO3)cc1 [Example 476, (E)-2-(4-(4-(2-(5-cyclopropyl-3-(2-(trifluoromethyl)phenyl)isoxazol-4-yl)vinyl)-2-oxabicyclo[2.2.2]octan-1-yl)phenyl)-2-methylpropanenitrile] | 0.69 µM
CC(C)(C(=O)O)c1ccc(C23CCC(/C=C/c4c(-c5ccccc5C(F)(F)F)noc4C4CC4)(CC2)CO3)cc1 [Example 477, (E)-2-(4-(4-(2-(5-cyclopropyl-3-(2-(trifluoromethyl)phenyl)isoxazol-4-yl)vinyl)-2-oxabicyclo[2.2.2]octan-1-yl)phenyl)-2-methylpropanoic acid] | 1.5 µM
O=C(O)c1cc(-c2noc(C34CCC(/C=C/c5c(-c6c(Cl)cncc6Cl)noc5C5CC5)(CC3)CO4)n2)cc(C(F)(F)F)c1 [Example 478, (E)-3-(5-(4-(2-(5-cyclopropyl-3-(3,5-dichloropyridin-4-yl)isoxazol-4-yl)vinyl)-2-oxabicyclo[2.2.2]octan-1-yl)-1,2,4-oxadiazol-3-yl)-5-(trifluoromethyl)benzoic acid] | 0.12 µM
O=C(O)c1cc(OC(F)F)cc(-c2noc(C34CCC(/C=C/c5c(-c6c(Cl)cncc6Cl)noc5C5CC5)(CC3)CO4)n2)c1 [Example 479, (E)-3-(5-(4-(2-(5-cyclopropyl-3-(3,5-dichloropyridin-4-yl)isoxazol-4-yl)vinyl)-2-oxabicyclo[2.2.2]octan-1-yl)-1,2,4-oxadiazol-3-yl)-5-(difluoromethoxy)benzoic acid] | 0.36 µM
CC(C)(C(N)=O)c1ccc(C23CCC(/C=C/c4c(-c5ccccc5C(F)(F)F)noc4C4CC4)(CC2)CO3)cc1 [Example 480, (E)-2-(4-(4-(2-(5-cyclopropyl-3-(2-(trifluoromethyl)phenyl)isoxazol-4-yl)vinyl)-2-oxabicyclo[2.2.2]octan-1-yl)phenyl)-2-methylpropanamide] | 1 µM
CC(C)(C(N)=O)c1ccc(C23CCC(/C=C/c4c(-c5c(Cl)cncc5Cl)noc4C4CC4)(CC2)CO3)cc1 [Example 481, (E)-2-(4-(4-(2-(5-cyclopropyl-3-(3,5-dichloropyridin-4-yl)isoxazol-4-yl)vinyl)-2-oxabicyclo[2.2.2]octan-1-yl)phenyl)-2-methylpropanamide] | 0.51 µM
CC(C)(C(=O)O)c1ccc(C23CCC(/C=C/c4c(-c5c(Cl)cncc5Cl)noc4C4CC4)(CC2)CO3)cc1 [Example 482, (E)-2-(4-(4-(2-(5-cyclopropyl-3-(3,5-dichloropyridin-4-yl)isoxazol-4-yl)vinyl)-2-oxabicyclo[2.2.2]octan-1-yl)phenyl)-2-methylpropanoic acid] | 0.95 µM
COc1cncc(Cl)c1-c1noc(C2CC2)c1/C=C/C12CCC(c3ccc(C(C)(C)C(=O)O)cc3)(CC1)OC2 [Example 483, (E)-2-(4-(4-(2-(3-(3-chloro-5-methoxypyridin-4-yl)-5-cyclopropylisoxazol-4-yl)vinyl)-2-oxabicyclo[2.2.2]octan-1-yl)phenyl)-2-methylpropanoic acid] | 4.5 µM
O=C(O)c1cccc(OCC23CCC(COCc4c(-c5c(Cl)cccc5Cl)noc4C4CC4)(CC2)CC3)c1 [Example 484, 3-((4-(((5-cyclopropyl-3-(2,6-dichlorophenyl)isoxazol-4-yl)methoxy)methyl)bicyclo[2.2.2]octan-1-yl)methoxy)benzoic acid] | 0.2 µM
O=C(O)c1cc(-c2noc(C34CCC(COCc5c(-c6c(Cl)cncc6Cl)noc5C5CC5)(CC3)CC4)n2)cc(C(F)(F)F)c1 [Example 485, 3-(5-(4-(((5-cyclopropyl-3-(3,5-dichloropyridin-4-yl)isoxazol-4-yl)methoxy)methyl)bicyclo[2.2.2]octan-1-yl)-1,2,4-oxadiazol-3-yl)-5-(trifluoromethyl)benzoic acid] | 0.38 µM
O=C(O)c1ccc(F)c(-c2noc(C34CCC(COCc5c(-c6c(Cl)cncc6Cl)noc5C5CC5)(CC3)CC4)n2)c1 [Example 486, 3-(5-(4-(((5-cyclopropyl-3-(3,5-dichloropyridin-4-yl)isoxazol-4-yl)methoxy)methyl)bicyclo[2.2.2]octan-1-yl)-1,2,4-oxadiazol-3-yl)-4-fluorobenzoic acid] | 2.7 µM
COc1ccc(C(=O)O)cc1-c1noc(C23CCC(COCc4c(-c5c(Cl)cncc5Cl)noc4C4CC4)(CC2)CC3)n1 [Example 487, 3-(5-(4-(((5-cyclopropyl-3-(3,5-dichloropyridin-4-yl)isoxazol-4-yl)methoxy)methyl)bicyclo[2.2.2]octan-1-yl)-1,2,4-oxadiazol-3-yl)-4-methoxybenzoic acid] | 5.4 µM
N#Cc1cc(C(F)(F)F)cc(C23CCC(COCc4c(-c5c(Cl)cncc5Cl)noc4C4CC4)(CC2)CO3)c1 [Example 488, 3-(4-(((5-cyclopropyl-3-(3,5-dichloropyridin-4-yl)isoxazol-4-yl)methoxy)methyl)-2-oxabicyclo[2.2.2]octan-1-yl)-5-(trifluoromethyl)benzonitrile] | 2.4 µM
NC(=O)c1cc(C(F)(F)F)cc(C23CCC(COCc4c(-c5c(Cl)cncc5Cl)noc4C4CC4)(CC2)CO3)c1 [Example 489, 3-(4-(((5-cyclopropyl-3-(3,5-dichloropyridin-4-yl)isoxazol-4-yl)methoxy)methyl)-2-oxabicyclo[2.2.2]octan-1-yl)-5-(trifluoromethyl)benzamide] | 1.4 µM
O=C(O)c1cc(C(F)(F)F)cc(C23CCC(COCc4c(-c5c(Cl)cncc5Cl)noc4C4CC4)(CC2)CO3)c1 [Example 490, 3-(4-(((5-cyclopropyl-3-(3,5-dichloropyridin-4-yl)isoxazol-4-yl)methoxy)methyl)-2-oxabicyclo[2.2.2]octan-1-yl)-5-(trifluoromethyl)benzoic acid] | 0.096 µM
O=C(O)c1cc(C(F)(F)F)cc(C23CCC(/C=C/c4c(-c5c(Cl)cncc5Cl)noc4C4CC4)(CC2)CO3)c1 [Example 491, (E)-3-(4-(2-(5-cyclopropyl-3-(3,5-dichloropyridin-4-yl)isoxazol-4-yl)vinyl)-2-oxabicyclo[2.2.2]octan-1-yl)-5-(trifluoromethyl)benzoic acid] | 0.026 µM
COc1ccc(-c2noc(C34CCC(/C=C/c5c(-c6c(Cl)cncc6Cl)noc5C5CC5)(CC3)CO4)n2)cc1C(=O)O [Example 492, (E)-5-(5-(4-(2-(5-cyclopropyl-3-(3,5-dichloropyridin-4-yl)isoxazol-4-yl)vinyl)-2-oxabicyclo[2.2.2]octan-1-yl)-1,2,4-oxadiazol-3-yl)-2-methoxybenzoic acid] | 0.25 µM
COc1cc(OCC23CCC(/C=C/c4c(-c5c(Cl)cncc5Cl)noc4C4CC4)(CC2)CC3)cc(C(=O)O)c1 [Example 493, (E)-3-((4-(2-(5-cyclopropyl-3-(3,5-dichloropyridin-4-yl)isoxazol-4-yl)vinyl)bicyclo[2.2.2]octan-1-yl)methoxy)-5-methoxybenzoic acid] | 0.018 µM
O=C(O)c1cc(-c2noc(C34CCC(/C=C/c5c(-c6c(Cl)cncc6Cl)noc5C5CC5)(CC3)OC4)n2)cc(C(F)(F)F)c1 [Example 494, (E)-3-(5-(1-(2-(5-cyclopropyl-3-(3,5-dichloropyridin-4-yl)isoxazol-4-yl)vinyl)-2-oxabicyclo[2.2.2]octan-4-yl)-1,2,4-oxadiazol-3-yl)-5-(trifluoromethyl)benzoic acid] | 0.13 µM
O=C(O)c1cccc(-c2noc(C34CCC(/C=C/c5c(-c6c(Cl)cncc6Cl)noc5C5CC5)(CC3)OC4)n2)c1 [Example 495, (E)-3-(5-(1-(2-(5-cyclopropyl-3-(3,5-dichloropyridin-4-yl)isoxazol-4-yl)vinyl)-2-oxabicyclo[2.2.2]octan-4-yl)-1,2,4-oxadiazol-3-yl)benzoic acid] | 1.7 µM
COc1ccc(-c2noc(C34CCC(/C=C/c5c(-c6c(Cl)cncc6Cl)noc5C5CC5)(CC3)OC4)n2)cc1C(=O)O [Example 496, (E)-5-(5-(1-(2-(5-cyclopropyl-3-(3,5-dichloropyridin-4-yl)isoxazol-4-yl)vinyl)-2-oxabicyclo[2.2.2]octan-4-yl)-1,2,4-oxadiazol-3-yl)-2-methoxybenzoic acid] | 1 µM
O=C(O)c1cc(OC(F)F)cc(-c2noc(C34CCC(/C=C/c5c(-c6c(Cl)cncc6Cl)noc5C5CC5)(CC3)OC4)n2)c1 [Example 497, (E)-3-(5-(1-(2-(5-cyclopropyl-3-(3,5-dichloropyridin-4-yl)isoxazol-4-yl)vinyl)-2-oxabicyclo[2.2.2]octan-4-yl)-1,2,4-oxadiazol-3-yl)-5-(difluoromethoxy)benzoic acid] | 0.46 µM
O=C(O)c1cc(OC(F)F)c2cc(OCC34CCC(/C=C/c5c(-c6c(Cl)cncc6Cl)noc5C5CC5)(CC3)CO4)ccc2n1 [Example 498, (E)-6-((4-(2-(5-cyclopropyl-3-(3,5-dichloropyridin-4-yl)isoxazol-4-yl)vinyl)-2-oxabicyclo[2.2.2]octan-1-yl)methoxy)-4-(difluoromethoxy)quinoline-2-carboxylic acid] | 0.25 µM
O=C(O)c1cc(OCC23CCC(/C=C/c4c(-c5c(Cl)cncc5Cl)noc4C4CC4)(CC2)CO3)cc(OC(F)F)c1 [Example 499, (E)-3-((4-(2-(5-cyclopropyl-3-(3,5-dichloropyridin-4-yl)isoxazol-4-yl)vinyl)-2-oxabicyclo[2.2.2]octan-1-yl)methoxy)-5-(difluoromethoxy)benzoic acid] | 0.16 µM
O=C(O)c1cc(C(F)(F)F)c2cc(OCC34CCC(/C=C/c5c(-c6c(Cl)cncc6Cl)noc5C5CC5)(CC3)CO4)ccc2n1 [Example 500, (E)-6-((4-(2-(5-cyclopropyl-3-(3,5-dichloropyridin-4-yl)isoxazol-4-yl)vinyl)-2-oxabicyclo[2.2.2]octan-1-yl)methoxy)-4-(trifluoromethyl)quinoline-2-carboxylic acid] | 0.16 µM
